# Results from patent US10617692B2, “Pyrrolopyrimidine comprising cyclopentyl substituent” (CENTAURUS BIOPHARMA CO., LTD., priority 2016, dated 2020).
# How the values were obtained:
# [1] = Plasma protein binding assay (Rapid Equilibrium Dialysis), determination of free moiety; format: in vitro ADME; conditions: equilibrium dialysis 5 hours in human plasma at 37° C.; compounds II, III, IV at 10 μM, compound I at 1 μM and 10 μM
# Description: Protein binding to the tested compounds was determined by equilibrium dialysis using a Rapid Equilibrium Dialysis (RED) Device system. The dialysis was performed for 5 hours in human plasma at 37° C. The compound II, the compound III, and the compound IV were incubated at 10 μM, and the compound I was incubated at 1 μM and 10 μM. The concentrations of the compounds in plasma and a buffer solution after dialysis were determined through LC-MS/MS analysis. The free moiety is defined as a ratio of the concentration in the buffer solution to the concentration in the plasma.
# [2] = molecular target: JAK2 kinase (Homo sapiens (Human), UniProt O60674); test: Assay for enzymatic activity (IC50), HTRF kinase assay; format: biochemical; conditions: ATP at Km, 120 min at 23° C.
# Chain of JAK2 kinase (O60674 whole entry): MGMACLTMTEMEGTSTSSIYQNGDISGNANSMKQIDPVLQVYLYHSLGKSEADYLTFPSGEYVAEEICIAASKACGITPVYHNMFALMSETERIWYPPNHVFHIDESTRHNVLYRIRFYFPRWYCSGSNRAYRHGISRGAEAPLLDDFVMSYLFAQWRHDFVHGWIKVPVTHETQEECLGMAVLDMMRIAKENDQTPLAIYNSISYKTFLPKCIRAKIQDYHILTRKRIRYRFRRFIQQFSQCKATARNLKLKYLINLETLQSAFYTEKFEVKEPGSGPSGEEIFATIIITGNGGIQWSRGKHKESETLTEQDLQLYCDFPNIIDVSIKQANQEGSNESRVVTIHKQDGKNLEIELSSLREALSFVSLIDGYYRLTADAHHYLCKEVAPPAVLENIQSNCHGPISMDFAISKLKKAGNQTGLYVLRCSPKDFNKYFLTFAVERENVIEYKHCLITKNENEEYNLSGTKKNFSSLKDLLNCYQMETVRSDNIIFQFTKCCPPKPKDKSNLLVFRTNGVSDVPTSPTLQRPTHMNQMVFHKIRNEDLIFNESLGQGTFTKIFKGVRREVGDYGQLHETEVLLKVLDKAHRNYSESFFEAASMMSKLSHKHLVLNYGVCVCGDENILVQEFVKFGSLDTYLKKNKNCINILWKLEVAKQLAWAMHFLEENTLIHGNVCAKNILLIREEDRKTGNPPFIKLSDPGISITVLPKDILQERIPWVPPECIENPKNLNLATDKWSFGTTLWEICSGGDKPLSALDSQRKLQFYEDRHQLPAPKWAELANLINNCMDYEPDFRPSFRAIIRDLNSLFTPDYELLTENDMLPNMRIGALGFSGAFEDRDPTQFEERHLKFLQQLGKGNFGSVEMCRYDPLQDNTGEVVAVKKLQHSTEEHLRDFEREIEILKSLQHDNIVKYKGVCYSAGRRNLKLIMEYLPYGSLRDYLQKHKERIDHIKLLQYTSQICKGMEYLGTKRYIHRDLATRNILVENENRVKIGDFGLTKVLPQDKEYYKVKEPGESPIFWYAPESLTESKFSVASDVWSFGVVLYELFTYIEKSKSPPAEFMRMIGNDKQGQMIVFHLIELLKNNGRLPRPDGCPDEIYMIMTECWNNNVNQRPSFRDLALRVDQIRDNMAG
# Description: A testing platform for kinase activity of JAK2 was established based on Homogeneous Time-Resolved Fluorescence (HTRF) assay, and the activities of the compounds were tested using the platform. The compounds were subjected to three-fold gradient dilutions with 100% DMSO with a starting concentration of 1 mM (11 dilutions in total). 4 μL of each dilution was added to 96 μL of reaction buffer (50 mM HEPES, pH 7.4, 10 mM MgCl2, 1 mM EGTA, 0.01% Tween-20, 0.005% BAS, 2 mM DTT) and mixed homogeneously. […] The mixture was mixed homogeneously by centrifugation. […] The plate was incubated in the incubator for 1 hr, and then the fluorescence values were read on Envision (available from PerkinElmer). The excitation wavelength was 320 nm, and the emission wavelengths for detection were 665 nm and 620 nm. The enzymatic activity was represented by a ratio of the two readout at the two emission wavelengths. The enzymatic activity for each compound was tested at 11 concentrations, and IC50 values of the compounds were obtained by calculating the data using GraFit6.0 software (Erithacus Software)
# [3] = Human liver microsomal stability test, determination of inherent clearance; format: in vitro ADME; conditions: 37° C.; for half-life at 1 μM: both sexes, 1 μM compound, human liver microsomes 0.4 mg/mL protein, 1.25 mM NADPH, 1 hour, read-out: Human liver microsome T1/2 (converted); for Human inherent CL: calculated from declination slope of compound concentration in human liver microsomes, 1 μM
# Description: 1 μM of the tested compound was incubated for 1 hour together with human liver microsomes of mixed genders (0.4 mg/mL protein) in the presence of 1.25 mM NADPH at 37° C. to determine the inherent clearance. The disappearance of the tested compound was monitored by LC-MS/MS at 0, 10, 20, 30, 45, and 60 minute. By using the standard method reported in literatures, the declination slope of the concentration of the compound was used to calculate the inherent clearance of human.
Unbound moiety (% human plasma) [1] [%],IC50 [2] [nM],half-life at 1 μM [3] [min],Human inherent CL [3] [L/h/kg],Compound
28.8,< 10,> 240,<0.31,"N#CCC(C1CCCC1O)n1cc(-c2ncnc3[nH]ccc23)c(N)n1 (stereo not shown) [Compound II, 3-[3-amino-4-(7H-pyrrolo[2,3-d]pyrimidin-4-yl)-1H-pyrazol-1-yl]-3-(2-hydroxylcyclopentyl)propionitrile]"
30.4,< 10,> 240,<0.31,"N#CCC(C1CCC(=O)C1)n1cc(-c2ncnc3[nH]ccc23)c(N)n1 (stereo not shown) [Compound III, 3-[3-amino-4-(7H-pyrrolo[2,3-d]pyrimidin-4-yl)-1H-pyrazol-1-yl]-3-(3-oxocyclopentyl)propionitrile]"
24.3,< 30,> 240,<0.31,"N#CCC(C1CCCC1=O)n1cc(-c2ncnc3[nH]ccc23)c(N)n1 (stereo not shown) [Compound IV, 3-[3-amino-4-(7H-pyrrolo[2,3-d]pyrimidin-4-yl)-1H-pyrazol-1-yl]-3-(2-oxocyclopentyl)propionitrile]"
–,–,166,–,"N#CC[C@H](C1CCCC1)n1cc(-c2ncnc3[nH]ccc23)c(N)n1 [Compound I^a, (3R)-3-[3-amino-4-(7H-pyrrolo[2,3-d]pyrimidin-4-yl)-1H-pyrazol-1-yl]-3-cyclopentylpropionitrile]"
